Assay results taken from PMC10495264 (Nature Cell Biology, 2023).
Like-named read-outs stand apart in the source and are kept apart here.

How the values were obtained:
[1] = target: T1, mTORC1 (Homo sapiens, UniProt P42345); assay: Mammalian mTORC1 kinase activity assays (IVK, 4E-BP1 substrate); format: biochemical; details: for In vitro mTORC1 assay, p-4E-BP1(T37/46)/4E-BP1, Mean: Fig. 8f, relative to 0 mM
T1 construct: endogenous mTORC1 complexes were purified from HEK293FT cells; endogenous in cells; host or cells: HEK293FT (immunoprecipitation of endogenous mTOR); the 4E-BP1 substrate was made in E. coli BL21 RP
Procedure: Following the last wash step with CHAPS IP wash buffer, the beads were washed once with kinase wash buffer (25 mM HEPES pH 7.4 and 20 mM KCl) and excess liquid was removed using a Hamilton syringe—the final bead volume was approximately 10 μl. Kinase reactions were prepared by adding 10 μl of 3×kinase assay buffer (75 mM HEPES KOH pH 7.4, 60 mM KCl and 30 mM MgCl2) to the beads. […] The reactions were incubated at 30 °C for 30 min, and stopped by the addition of one volume of 2×SDS loading buffer and boiling (5 min, 95 °C). […] Signals were quantified using the gel analysis tool of ImageJ and are shown as the phospho-4E-BP1^T37/46/4E-BP1 ratio.

[2] = target: T2, TORC1 (Saccharomyces cerevisiae, UniProt P35169); assay: Yeast TORC1 kinase activity assays (radioactive IVK, Lst4^Loop substrate); format: biochemical; details: for In vitro TORC1 kinase assay - CoA compounds, relative activity, Mean: Fig. 8b; for IC50: Lst4^Loop phosphorylation, detection limit 6 mM, n = 3, read-out: IC50 (yeast TORC1 IVK)
T2 construct: made in house; host or cells: S. cerevisiae strain NIC005 ([RL170-2c] LEU2:GFP-TOR1)
T2 sequence (P35169 whole entry): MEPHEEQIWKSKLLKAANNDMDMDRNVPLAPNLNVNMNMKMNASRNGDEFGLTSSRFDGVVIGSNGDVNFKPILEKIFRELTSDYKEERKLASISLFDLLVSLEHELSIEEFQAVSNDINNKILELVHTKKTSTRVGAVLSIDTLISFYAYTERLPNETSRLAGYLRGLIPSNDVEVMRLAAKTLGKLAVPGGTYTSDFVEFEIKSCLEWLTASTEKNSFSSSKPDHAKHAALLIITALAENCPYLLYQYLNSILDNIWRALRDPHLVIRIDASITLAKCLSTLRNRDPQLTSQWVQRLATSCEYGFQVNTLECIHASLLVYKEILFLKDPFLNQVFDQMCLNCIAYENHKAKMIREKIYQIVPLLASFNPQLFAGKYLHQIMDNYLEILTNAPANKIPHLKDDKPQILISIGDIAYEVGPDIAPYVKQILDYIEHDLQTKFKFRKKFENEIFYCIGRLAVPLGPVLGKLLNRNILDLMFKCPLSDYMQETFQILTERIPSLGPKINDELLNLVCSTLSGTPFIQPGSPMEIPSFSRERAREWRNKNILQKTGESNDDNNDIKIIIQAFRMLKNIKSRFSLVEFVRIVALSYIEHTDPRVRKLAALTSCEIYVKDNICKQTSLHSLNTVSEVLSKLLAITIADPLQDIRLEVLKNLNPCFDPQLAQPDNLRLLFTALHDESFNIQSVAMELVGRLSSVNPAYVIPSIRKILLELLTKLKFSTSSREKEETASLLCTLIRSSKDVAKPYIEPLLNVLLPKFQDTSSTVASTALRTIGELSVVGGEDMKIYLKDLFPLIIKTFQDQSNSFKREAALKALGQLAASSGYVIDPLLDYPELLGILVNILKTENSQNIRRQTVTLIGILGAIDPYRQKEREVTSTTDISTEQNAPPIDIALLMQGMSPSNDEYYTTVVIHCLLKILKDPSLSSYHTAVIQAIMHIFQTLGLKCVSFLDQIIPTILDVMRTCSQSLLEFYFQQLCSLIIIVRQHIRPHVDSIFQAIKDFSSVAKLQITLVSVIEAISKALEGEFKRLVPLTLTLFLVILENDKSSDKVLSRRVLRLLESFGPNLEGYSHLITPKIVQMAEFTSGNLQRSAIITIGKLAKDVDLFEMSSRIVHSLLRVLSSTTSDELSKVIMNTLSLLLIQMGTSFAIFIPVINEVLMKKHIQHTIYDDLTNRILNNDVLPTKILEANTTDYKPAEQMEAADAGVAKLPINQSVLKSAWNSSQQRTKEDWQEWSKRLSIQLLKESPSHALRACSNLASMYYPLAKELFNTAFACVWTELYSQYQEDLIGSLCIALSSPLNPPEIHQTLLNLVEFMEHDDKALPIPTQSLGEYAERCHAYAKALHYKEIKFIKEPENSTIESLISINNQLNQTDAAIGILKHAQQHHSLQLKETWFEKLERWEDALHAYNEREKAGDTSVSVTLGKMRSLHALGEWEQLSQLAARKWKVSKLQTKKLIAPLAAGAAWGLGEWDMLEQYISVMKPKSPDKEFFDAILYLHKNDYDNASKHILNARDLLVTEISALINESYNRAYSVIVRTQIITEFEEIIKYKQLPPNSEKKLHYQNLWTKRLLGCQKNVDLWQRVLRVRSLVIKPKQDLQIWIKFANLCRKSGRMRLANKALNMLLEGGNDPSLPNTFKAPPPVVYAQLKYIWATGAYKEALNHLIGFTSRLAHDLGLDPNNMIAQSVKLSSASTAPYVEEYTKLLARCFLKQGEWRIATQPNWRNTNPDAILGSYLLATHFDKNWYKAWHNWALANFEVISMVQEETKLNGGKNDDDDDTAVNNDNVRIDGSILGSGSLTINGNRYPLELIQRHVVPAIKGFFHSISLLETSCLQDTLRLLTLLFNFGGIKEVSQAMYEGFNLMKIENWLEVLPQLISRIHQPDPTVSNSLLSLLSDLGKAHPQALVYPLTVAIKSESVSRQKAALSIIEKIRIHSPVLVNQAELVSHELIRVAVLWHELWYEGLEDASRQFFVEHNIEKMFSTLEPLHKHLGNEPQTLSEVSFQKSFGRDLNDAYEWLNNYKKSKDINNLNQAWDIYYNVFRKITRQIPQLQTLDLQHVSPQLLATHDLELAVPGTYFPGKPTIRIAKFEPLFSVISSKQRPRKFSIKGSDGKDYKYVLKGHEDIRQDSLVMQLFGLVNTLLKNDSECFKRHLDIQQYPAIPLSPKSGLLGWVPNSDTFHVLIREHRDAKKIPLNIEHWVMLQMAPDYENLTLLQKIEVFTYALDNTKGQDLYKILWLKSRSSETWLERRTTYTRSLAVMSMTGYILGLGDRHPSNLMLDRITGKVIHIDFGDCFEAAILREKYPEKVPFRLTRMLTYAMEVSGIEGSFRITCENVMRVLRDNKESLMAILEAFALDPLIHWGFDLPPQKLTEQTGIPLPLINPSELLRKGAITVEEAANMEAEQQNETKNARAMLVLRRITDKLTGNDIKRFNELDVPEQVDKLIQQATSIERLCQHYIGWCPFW
T2 sequence (Q08921 whole entry partner): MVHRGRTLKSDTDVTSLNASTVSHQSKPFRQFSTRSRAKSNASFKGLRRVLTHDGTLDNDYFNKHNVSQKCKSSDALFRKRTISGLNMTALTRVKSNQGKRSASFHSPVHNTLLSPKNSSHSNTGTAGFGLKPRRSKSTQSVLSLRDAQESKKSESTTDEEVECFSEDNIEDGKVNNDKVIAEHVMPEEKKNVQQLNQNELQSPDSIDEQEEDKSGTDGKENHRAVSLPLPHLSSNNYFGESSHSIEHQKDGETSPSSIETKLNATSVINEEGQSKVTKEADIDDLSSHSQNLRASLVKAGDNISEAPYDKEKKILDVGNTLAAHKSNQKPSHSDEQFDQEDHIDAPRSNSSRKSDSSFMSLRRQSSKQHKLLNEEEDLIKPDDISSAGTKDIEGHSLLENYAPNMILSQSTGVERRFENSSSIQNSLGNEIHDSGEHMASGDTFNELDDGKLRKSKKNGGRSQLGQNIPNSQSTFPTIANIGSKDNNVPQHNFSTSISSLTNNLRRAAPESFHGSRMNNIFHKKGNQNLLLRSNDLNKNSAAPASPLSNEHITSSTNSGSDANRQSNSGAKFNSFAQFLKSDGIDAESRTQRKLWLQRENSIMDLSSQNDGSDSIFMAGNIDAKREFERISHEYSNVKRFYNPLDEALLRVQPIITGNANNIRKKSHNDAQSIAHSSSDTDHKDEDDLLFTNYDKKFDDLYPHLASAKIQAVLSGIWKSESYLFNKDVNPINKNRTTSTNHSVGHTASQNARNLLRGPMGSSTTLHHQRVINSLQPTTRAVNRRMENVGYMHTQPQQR
T2 sequence (P38873 whole entry partner): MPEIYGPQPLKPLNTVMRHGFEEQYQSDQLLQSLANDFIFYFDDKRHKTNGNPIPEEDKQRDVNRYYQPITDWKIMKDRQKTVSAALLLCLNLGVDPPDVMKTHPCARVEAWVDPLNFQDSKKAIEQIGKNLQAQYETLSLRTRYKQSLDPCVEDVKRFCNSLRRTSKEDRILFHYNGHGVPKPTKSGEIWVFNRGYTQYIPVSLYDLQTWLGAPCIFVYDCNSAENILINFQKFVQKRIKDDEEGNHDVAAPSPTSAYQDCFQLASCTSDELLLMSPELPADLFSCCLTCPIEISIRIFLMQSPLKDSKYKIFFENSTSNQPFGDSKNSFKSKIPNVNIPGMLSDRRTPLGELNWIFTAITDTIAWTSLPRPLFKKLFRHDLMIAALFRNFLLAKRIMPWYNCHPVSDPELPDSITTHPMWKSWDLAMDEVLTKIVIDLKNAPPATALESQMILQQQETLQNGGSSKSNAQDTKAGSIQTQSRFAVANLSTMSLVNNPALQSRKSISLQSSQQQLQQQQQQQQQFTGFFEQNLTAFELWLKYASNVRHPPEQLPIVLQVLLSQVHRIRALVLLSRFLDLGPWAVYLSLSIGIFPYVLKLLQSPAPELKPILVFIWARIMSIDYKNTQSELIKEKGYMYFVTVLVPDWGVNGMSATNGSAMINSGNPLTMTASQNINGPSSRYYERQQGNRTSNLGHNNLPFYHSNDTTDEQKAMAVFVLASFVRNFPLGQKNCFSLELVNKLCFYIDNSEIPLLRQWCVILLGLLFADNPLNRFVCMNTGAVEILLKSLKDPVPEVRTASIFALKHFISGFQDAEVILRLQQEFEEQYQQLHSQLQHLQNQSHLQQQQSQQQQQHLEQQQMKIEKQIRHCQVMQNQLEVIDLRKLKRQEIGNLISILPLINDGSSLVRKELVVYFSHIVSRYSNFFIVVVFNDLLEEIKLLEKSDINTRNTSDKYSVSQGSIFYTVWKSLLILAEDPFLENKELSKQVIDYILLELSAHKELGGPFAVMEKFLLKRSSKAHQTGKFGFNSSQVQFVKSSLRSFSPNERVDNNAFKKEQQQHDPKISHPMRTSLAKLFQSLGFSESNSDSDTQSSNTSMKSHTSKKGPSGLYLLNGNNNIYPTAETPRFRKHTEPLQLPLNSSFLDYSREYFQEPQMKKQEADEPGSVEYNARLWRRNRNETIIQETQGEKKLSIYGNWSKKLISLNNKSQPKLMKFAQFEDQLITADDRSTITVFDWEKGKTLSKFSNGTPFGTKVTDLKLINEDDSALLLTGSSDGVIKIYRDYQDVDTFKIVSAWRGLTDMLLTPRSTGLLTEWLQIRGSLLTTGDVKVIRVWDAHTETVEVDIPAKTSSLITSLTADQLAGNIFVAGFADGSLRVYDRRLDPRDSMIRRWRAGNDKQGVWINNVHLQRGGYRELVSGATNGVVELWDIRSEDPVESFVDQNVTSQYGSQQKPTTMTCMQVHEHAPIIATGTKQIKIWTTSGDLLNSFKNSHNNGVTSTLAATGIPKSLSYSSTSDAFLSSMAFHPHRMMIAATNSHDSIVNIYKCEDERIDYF
T2 sequence (P41318 whole entry partner): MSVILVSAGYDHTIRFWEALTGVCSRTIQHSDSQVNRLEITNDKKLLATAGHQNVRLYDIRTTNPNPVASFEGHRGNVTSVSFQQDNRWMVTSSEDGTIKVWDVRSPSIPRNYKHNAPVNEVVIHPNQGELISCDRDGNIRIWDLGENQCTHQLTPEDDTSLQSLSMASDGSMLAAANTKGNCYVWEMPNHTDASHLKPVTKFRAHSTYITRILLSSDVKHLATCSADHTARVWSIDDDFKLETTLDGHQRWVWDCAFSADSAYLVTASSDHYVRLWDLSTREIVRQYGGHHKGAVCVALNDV
Procedure: TORC1 was purified from yeast cells and radioactive IVK assays were performed essentially as previously described. Briefly, kinase reactions (total volume, 30 μl) were performed with 400 ng of purified His6–Lst4^Loop protein and 60 ng TORC1 in kinase buffer (50 mM HEPES NaOH pH 7.5 and 150 mM NaCl). […] All reactions were carried out at 30 °C for 10 min and stopped with the addition of 3×sample buffer (50 mM Tris–HCl pH 6.8, 5% SDS, 0.05% bromophenol blue, 630 mM DTT and 30% glycerol) and heating at 65 °C for 10 min. Proteins were separated by SDS–PAGE and stained in-gel with SYPRO Ruby (S4942, Sigma-Aldrich) as the loading control. Substrate phosphorylation was analysed by autoradiography using a Typhoon FLA 9500 phosphorimager (GE Healthcare) and the raw density of the signals was quantified using the gel analysis tool of ImageJ.

[3] = test system: TORC1; assay: TORC1 activity in yeast cells, p-Sch9^T737/Sch9 immunoblot; format: cell-based, Saccharomyces cerevisiae; details: wt Ctrl = 1
[4] = compound 0.073 mM, normalised to this concentration

## CC(C)(COP(=O)(O)OP(=O)(O)OC[C@H]1O[C@@H](n2cnc3c(N)ncnc32)[C@H](O)[C@@H]1OP(=O)(O)O)[C@@H](O)C(=O)NCCC(=O)NCCS [CoA, coenzyme A]
[1]
  IC50: > 5 mM
[1]; compound 0.01 mM
  In vitro mTORC1 assay, p-4E-BP1(T37/46)/4E-BP1, Mean: 0.8503
[1]; compound 0.05 mM
  In vitro mTORC1 assay, p-4E-BP1(T37/46)/4E-BP1, Mean: 0.8507
[1]; compound 0.1 mM
  In vitro mTORC1 assay, p-4E-BP1(T37/46)/4E-BP1, Mean: 1.093
[1]; compound 0.5 mM
  In vitro mTORC1 assay, p-4E-BP1(T37/46)/4E-BP1, Mean: 0.8643
[1]; compound 1 mM
  In vitro mTORC1 assay, p-4E-BP1(T37/46)/4E-BP1, Mean: 1.061
[1]; compound 2.5 mM
  In vitro mTORC1 assay, p-4E-BP1(T37/46)/4E-BP1, Mean: 0.926
[1]; compound 5 mM
  In vitro mTORC1 assay, p-4E-BP1(T37/46)/4E-BP1, Mean: 0.889
[2]; [4]
  In vitro TORC1 kinase assay - CoA compounds, relative activity, Mean: 1
[2]; compound 0.22 mM
  In vitro TORC1 kinase assay - CoA compounds, relative activity, Mean: 1.005
[2]; compound 2 mM
  In vitro TORC1 kinase assay - CoA compounds, relative activity, Mean: 0.9479
[2]; compound 6 mM
  In vitro TORC1 kinase assay - CoA compounds, relative activity, Mean: 0.6805
[2]
  IC50: > 6 mM

## NC(=O)CC[C@H](N)C(=O)O [Gln, glutamine]
[3]; Acc1-GFP yeast, nitrogen-starved then +Gln 1 min, ED Fig. 2e
  p-Sch9(T737)/Sch9, Mean: 0.2777
[3]; Acc1-GFP yeast, nitrogen-starved then +Gln 2 min, ED Fig. 2e
  p-Sch9(T737)/Sch9, Mean: 0.2567
[3]; Acc1-GFP yeast, nitrogen-starved then +Gln 5 min, ED Fig. 2e
  p-Sch9(T737)/Sch9, Mean: 0.172
[3]; acc1E392K yeast, nitrogen-starved then +Gln 1 min, ED Fig. 1g
  p-Sch9(T737)/Sch9, Mean: 0.2184
[3]; acc1E392K yeast, nitrogen-starved then +Gln 2 min, ED Fig. 1g
  p-Sch9(T737)/Sch9, Mean: 0.4052
[3]; acc1E392K yeast, nitrogen-starved then +Gln 5 min, ED Fig. 1g
  p-Sch9(T737)/Sch9, Mean: 0.172
[3]; acc1E392K yeast, nitrogen-starved then +Gln 15 min, ED Fig. 1g
  p-Sch9(T737)/Sch9, Mean: 0.07897
[3]; acc1E392K,S1157A yeast, nitrogen-starved then +Gln 1 min, ED Fig. 1g
  p-Sch9(T737)/Sch9, Mean: 0.2597
[3]; acc1E392K,S1157A yeast, nitrogen-starved then +Gln 2 min, ED Fig. 1g
  p-Sch9(T737)/Sch9, Mean: 0.4125
[3]; acc1E392K,S1157A yeast, nitrogen-starved then +Gln 5 min, ED Fig. 1g
  p-Sch9(T737)/Sch9, Mean: 0.1831
[3]; acc1E392K,S1157A yeast, nitrogen-starved then +Gln 15 min, ED Fig. 1g
  p-Sch9(T737)/Sch9, Mean: 0.0777
[3]; acc1S1157A yeast, nitrogen-starved then +Gln 1 min, ED Fig. 1g
  p-Sch9(T737)/Sch9, Mean: 0.08981
[3]; acc1S1157A yeast, nitrogen-starved then +Gln 1 min, ED Fig. 2e
  p-Sch9(T737)/Sch9, Mean: 0.1842
[3]; acc1S1157A yeast, nitrogen-starved then +Gln 1 min, Fig. 2e
  p-Sch9(T737)/Sch9, Mean: 0.5322
[3]; acc1S1157A yeast, nitrogen-starved then +Gln 2 min, ED Fig. 1g
  p-Sch9(T737)/Sch9, Mean: 0.2298
[3]; acc1S1157A yeast, nitrogen-starved then +Gln 2 min, ED Fig. 2e
  p-Sch9(T737)/Sch9, Mean: 0.2323
[3]; acc1S1157A yeast, nitrogen-starved then +Gln 2 min, Fig. 2e
  p-Sch9(T737)/Sch9, Mean: 0.5731
[3]; acc1S1157A yeast, nitrogen-starved then +Gln 5 min, ED Fig. 1g
  p-Sch9(T737)/Sch9, Mean: 0.1433
[3]; acc1S1157A yeast, nitrogen-starved then +Gln 5 min, ED Fig. 2e
  p-Sch9(T737)/Sch9, Mean: 0.1614
[3]; acc1S1157A yeast, nitrogen-starved then +Gln 5 min, Fig. 2e
  p-Sch9(T737)/Sch9, Mean: 0.2159
[3]; acc1S1157A yeast, nitrogen-starved then +Gln 15 min, ED Fig. 1g
  p-Sch9(T737)/Sch9, Mean: 0.0801
[3]; acc1S1157A yeast, nitrogen-starved then +Gln 15 min, Fig. 2e
  p-Sch9(T737)/Sch9, Mean: 0.1147
[3]; acc1S1157A-GFP yeast, nitrogen-starved then +Gln 1 min, ED Fig. 2e
  p-Sch9(T737)/Sch9, Mean: 0.2949
[3]; acc1S1157A-GFP yeast, nitrogen-starved then +Gln 2 min, ED Fig. 2e
  p-Sch9(T737)/Sch9, Mean: 0.2508
[3]; acc1S1157A-GFP yeast, nitrogen-starved then +Gln 5 min, ED Fig. 2e
  p-Sch9(T737)/Sch9, Mean: 0.1919
[3]; wt yeast, nitrogen-starved then +Gln 1 min, n = 3, ED Fig. 2e
  p-Sch9(T737)/Sch9, Mean: 0.3518
[3]; wt yeast, nitrogen-starved then +Gln 1 min, n = 4, ED Fig. 1g
  p-Sch9(T737)/Sch9, Mean: 0.1938
[3]; wt yeast, nitrogen-starved then +Gln 2 min, Fig. 2e
  p-Sch9(T737)/Sch9, Mean: 0.8468
[3]; wt yeast, nitrogen-starved then +Gln 2 min, n = 3, ED Fig. 2e
  p-Sch9(T737)/Sch9, Mean: 0.2928
[3]; wt yeast, nitrogen-starved then +Gln 2 min, n = 4, ED Fig. 1g
  p-Sch9(T737)/Sch9, Mean: 0.4107
[3]; wt yeast, nitrogen-starved then +Gln 5 min, Fig. 2e
  p-Sch9(T737)/Sch9, Mean: 0.2605
[3]; wt yeast, nitrogen-starved then +Gln 5 min, n = 3, ED Fig. 2e
  p-Sch9(T737)/Sch9, Mean: 0.215
[3]; wt yeast, nitrogen-starved then +Gln 5 min, n = 4, ED Fig. 1g
  p-Sch9(T737)/Sch9, Mean: 0.1743
[3]; wt yeast, nitrogen-starved then +Gln 15 min, Fig. 2e
  p-Sch9(T737)/Sch9, Mean: 0.1412
[3]; wt yeast, nitrogen-starved then +Gln 15 min, n = 4, ED Fig. 1g
  p-Sch9(T737)/Sch9, Mean: 0.07833

## CC(=O)SCCNC(=O)CCNC(=O)[C@H](O)C(C)(C)COP(=O)(O)OP(=O)(O)OC[C@H]1O[C@@H](n2cnc3c(N)ncnc32)[C@H](O)[C@@H]1OP(=O)(O)O [acetyl-CoA]
[1]; compound 0.01 mM
  In vitro mTORC1 assay, p-4E-BP1(T37/46)/4E-BP1, Mean: 0.9483
[1]; compound 0.05 mM
  In vitro mTORC1 assay, p-4E-BP1(T37/46)/4E-BP1, Mean: 0.8033
[1]; compound 0.1 mM
  In vitro mTORC1 assay, p-4E-BP1(T37/46)/4E-BP1, Mean: 0.8597
[1]; compound 0.5 mM
  In vitro mTORC1 assay, p-4E-BP1(T37/46)/4E-BP1, Mean: 0.644
[1]; compound 1 mM
  In vitro mTORC1 assay, p-4E-BP1(T37/46)/4E-BP1, Mean: 0.6848
[1]; compound 2.5 mM
  In vitro mTORC1 assay, p-4E-BP1(T37/46)/4E-BP1, Mean: 0.4704
[1]; compound 5 mM
  In vitro mTORC1 assay, p-4E-BP1(T37/46)/4E-BP1, Mean: 0.3906
[1]; mTORC1 immunoprecipitated from HEK293FT, recombinant 4E-BP1, 500 μM ATP
  IC50: 1.03 mM
[2]; [4]
  In vitro TORC1 kinase assay - CoA compounds, relative activity, Mean: 1
[2]; compound 0.22 mM
  In vitro TORC1 kinase assay - CoA compounds, relative activity, Mean: 0.9698
[2]; compound 2 mM
  In vitro TORC1 kinase assay - CoA compounds, relative activity, Mean: 0.7319
[2]; compound 6 mM
  In vitro TORC1 kinase assay - CoA compounds, relative activity, Mean: 0.5296
[2]
  IC50: 2.88 mM
